Measurements from patent publication US20020076728A1, “Engineering affinity ligands for macromolecules” (priority 1997, published 2002).
Several values for one entry are separate records, joined by “and”; a condition that tells them apart may be missing. Identical values can stand only once. Ends that are not written are not given here.

Experiments:
tPA = tPA (Homo sapiens, UniProt P00750); assay: 15-amino acid segment of #109 bound to chromatographic support, tPA binding; conditions: bound to a chromatographic support; initial studies
Chain of tPA (P00750 36-562): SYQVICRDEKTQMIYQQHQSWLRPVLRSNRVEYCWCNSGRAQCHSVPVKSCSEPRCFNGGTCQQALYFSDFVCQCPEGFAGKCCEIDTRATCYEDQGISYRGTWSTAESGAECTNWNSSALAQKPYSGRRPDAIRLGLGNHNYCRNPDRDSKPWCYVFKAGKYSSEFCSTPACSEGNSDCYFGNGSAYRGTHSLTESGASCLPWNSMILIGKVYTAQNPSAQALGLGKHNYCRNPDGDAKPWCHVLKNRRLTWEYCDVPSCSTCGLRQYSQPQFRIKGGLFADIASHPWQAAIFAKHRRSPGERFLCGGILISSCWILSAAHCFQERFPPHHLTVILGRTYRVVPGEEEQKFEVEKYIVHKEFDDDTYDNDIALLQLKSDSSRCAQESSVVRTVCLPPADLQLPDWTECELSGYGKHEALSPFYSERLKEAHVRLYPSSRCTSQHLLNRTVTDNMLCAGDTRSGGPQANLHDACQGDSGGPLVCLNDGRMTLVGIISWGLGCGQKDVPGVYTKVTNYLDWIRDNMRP
Source text: As noted above, almost all of the variegation in amino acid positions used in building the CMTI library occurred between two cyteines at positions 3 and 10 of CMTI-I (see Table 3). In the parental CMTI protein, these cysteines form disulfide bonds with other cysteine residues elsewhere in the protein (see SEQ ID NO: 1), however with the successful isolation of affinity ligands from the CMTI library, a secondary library was conceptualized which was based on variegating a truncated 15-amino acid segment of the isolate #109 (see amino acids 1-15 of SEQ ID NO: 12). If the C3 and C10 cysteines of these members formed a disulfide bond, then a constrained loop having tPA binding properties might be obtained.

M13 phage = assay: Stability of M13 in various organic solvents (phage survival); conditions: for surviving phage: incubation for 20 minutes with 80% solvent
Source text: Thus, if phage display libraries are used, it is of interest to determine whether organic solvents disrupt the phage.

[1] = side-chain ionizable group of the amino acid type in proteins; cited from earlier work
[2] = target: T1, recombinant human tissue-type plasminogen activator (human, UniProt P00750 36-562); assay: peptide bound to a chromatographic support
T1 construct: Bought; immobilised on Reacti-Gel agarose beads for phage work, in solution for column tests; also called tPA
T1 sequence (P00750 36-562 limits assumed): as the sequence (P00750 36-562) above

[3] = 10% solvent by volume in Luria broth
[4] = 20% solvent by volume in Luria broth
[5] = 40% solvent by volume in Luria broth
[6] = 80% solvent by volume in Luria broth
[7] = 2% solvent by volume in Luria broth
[8] = 5% solvent by volume in Luria broth

With “15-amino acid segment derived from affinity ligand isolate #109: truncated 15-amino acid segment of isolate #109 (amino acids 1-15 of SEQ ID NO: 12), C3-C10 disulfide loop (RLCPKTDLGCMKDSD; also: C3-C10 disulfide stated only as a possibility)” the “binding of immobilized loop to tPA” value (tPA) was “bound to tPA”.

For `CC#N` [ACN, acetonitrile], the “Survival after 20 min. (%)” value (M13 phage; [3]) was 84%, the “Survival after 60 min. (%)” value (M13 phage; [3]) was 74% and the “Survival after 20 min. (%)” value (M13 phage; [4]) was 80%. The “Survival after 60 min. (%)” value (M13 phage; [4]) was 91%, the “Survival after 20 min. (%)” value (M13 phage; [5]) was 92% and the “Survival after 60 min. (%)” value (M13 phage; [5]) was 89%. The “Survival after 20 min. (%)” value (M13 phage; [6]) was 30% and 37% and the “Survival after 60 min. (%)” value (M13 phage; [6]) was 8% and 3%.

For `N=C(N)NCCC[C@H](N)C(=O)O` [Arg], the pKa range [1] is listed as 12.0.

In the case of `N[C@@H](CC(=O)O)C(=O)O` [Asp, aspartic acid], the pKa range [1] is listed as 3.9-4.0.

For `N[C@@H](CS)C(=O)O` [Cys (not in disulfide)], the pKa range [1] is listed as 9.0-9.5.

For `CN(C)C=O` [DMF, dimethylformamide], the surviving phage (M13 phage) was “no surviving phage”.

In the case of `C[S+](C)[O-]` [DMSO, dimethylsulfoxide], the “Survival after 20 min. (%)” value (M13 phage; [7]) is reported as 84%, the “Survival after 60 min. (%)” value (M13 phage; [7]) is reported as 89% and the “Survival after 20 min. (%)” value (M13 phage; [8]) is reported as 68%. The “Survival after 60 min. (%)” value (M13 phage; [8]) was 86%, the “Survival after 20 min. (%)” value (M13 phage; [3]) was 96% and the “Survival after 60 min. (%)” value (M13 phage; [3]) was 86%. For the same molecule, the “Survival after 20 min. (%)” value (M13 phage; [4]) was 73%, the “Survival after 60 min. (%)” value (M13 phage; [4]) was 82% and the “Survival after 20 min. (%)” value (M13 phage; [6]) was 1%. For the same molecule, the “Survival after 60 min. (%)” value (M13 phage; [6]) was >1%.

In the case of `CCO` [EtOH, ethanol], the surviving phage (M13 phage) is reported as “no surviving phage”.

In the case of `N[C@@H](CCC(=O)O)C(=O)O` [Glu], the pKa range [1] is listed as 4.3-4.5.

For `N[C@@H](Cc1c[nH]cn1)C(=O)O` [His, Histidine], the pKa range [1] is listed as 6.0-7.0.

For `CC(C)O` [IPA, isopropyl alcohol], the surviving phage (M13 phage) was “no surviving phage”.

In the case of `NCCCC[C@H](N)C(=O)O` [Lys], the pKa range [1] is listed as 10.4-11.1.

For `CO` [MeOH, methanol], the “Survival after 20 min. (%)” value (M13 phage; [3]) was 110%, the “Survival after 60 min. (%)” value (M13 phage; [3]) was 80% and the “Survival after 20 min. (%)” value (M13 phage; [4]) was 93%. The “Survival after 60 min. (%)” value (M13 phage; [4]) was 84%, the “Survival after 20 min. (%)” value (M13 phage; [5]) was 92% and the “Survival after 60 min. (%)” value (M13 phage; [5]) was 84%.

B1: 15-amino acid segment derived from affinity ligand isolate #109 (peptide)
peptide: RLCPKTDLGCMKDSD
modifications: also: C3-C10 disulfide stated only as a possibility
notes: also called truncated 15-amino acid segment of the isolate #109; C3-C10 loop
B1: binds [2].
